According to patent publication US20250361226A1, “PHARMACEUTICALLY ACCEPTABLE SALT OF BENZO[C]CHROMAN COMPOUND AND P[…] AND USE OF PHARMACEUTICALLY ACCEPTABLE SALT” (REISTONE BIOPHARMA COMPANY LIMITED, priority 2022, published 2025):

Legend:
[1] = Dynamic vapor sorption (DVS) with XRPD before and after; assay type: physicochemical
Protocol: (§1) Test conditions for the instruments used in experiments of the present disclosure: • 1. X-ray Powder Diffraction, XRPD • Instrument type: Malver Panalytical Aeris X-ray powder diffractometer • Ray: monochromatic Cu—Kα ray (λ=1.54188) • Scanning mode: θ/2θ, Scanning range (2θ range): 3.5-50° • Voltage: 40 kV, Electric current: 15 mA • 2. Differential Scanning calorimetry, DSC • Instrument type: TA DSC250 • Purge gas: Nitrogen; Nitrogen purge rate: 50 mL/min • Heating rate: 10° C./min • Temperature range: 25° C.-250° C. • 3. Thermogravimetric Analysis, TGA • Instrument type: TA TGA550 • Purge gas: Nitrogen; Nitrogen purge rate: 20 ml/min • Scanning rate: 10° C./min • Temperature range: 30° C.-350° C. • 4. Dynamic vapor sorption (DVS) • Using SMS Intrinsic PLUS, the detection is performed at 25° C., with humidity change of 50%-0%-90% with a step size of 10%, in which the criteria for judging is that the mass change dM/dT for each gradient is less than 0.002%, TMAX is 360 min, and two cycles are performed. • 5. High performance liquid chromatography (HPLC) described in the stability test of the crystal form A of the present disclosure is determined on Agilent 1260 Infinity II.
During the humidity change of 0%-90% RH, the desorption process of the sample coincides with the adsorption process thereof.

[2] = Stability test (influence factor tests: light, temperature, humidity) by HPLC and XRPD; assay type: physicochemical
Protocol: as §1
(§2) In the content detection method by the high performance liquid chromatography described in the present disclosure, HPLC conditions are as follows: chromatographic column, Agilent Eclipse Plus C18 4.6 mm*150 mm, 3.5 μm; mobile phase, A-10 mmol/L solution of sodium dihydrogen phosphate (pH 8.0), and B-ACN; flow rate, 1.0 ml/min; wavelength, 210 nm.
as §2, with “related substances” for “content”, “ammonium acetate,” for “sodium dihydrogen phosphate (pH 8.0),”
It is determined whether light, temperature and humidity have an influence on the stability of crystal form A of hydrochloride salt of the compound of formula I. The crystal form A of hydrochloride salt was placed in a stabilizing chamber in the dark and subjected to influence factor tests using a series of temperature and humidity combinations. After being placed for different days under light and various temperature and humidity conditions, the samples were taken out and compared with the initial crystal form A of hydrochloride salt. […] The samples taken out on the last day under light and various temperature and humidity conditions were subjected to XRPD detection, showing that the crystal form A of hydrochloride salt had no change and had good stability.

## Cl.N#Cc1ccc2c(c1)COc1cc(C[C@@H](C#N)NC(=O)[C@@H]3CNCCCO3)c(F)cc1-2 [Crystal form A of hydrochloride salt]
[1]; DVS, 25° C., 80% RH
  weight gain by hygroscopicity: approximately 1.1%
[1]; humidity change 0%-90% RH
  crystal form before and after DVS detection (XRPD): the crystal form did not change
[2]; 25° C. 92% - one week
  Content %: 99.37%
  Isomers %: 0.63%
[2]; 25° C. 92% - two weeks
  Content %: 99.31%
  Isomers %: 0.70%
[2]; 40° C. 75% - one week
  Content %: 99.31%
  Isomers %: 0.69%
[2]; 40° C. 75% - two weeks
  Content %: 99.32%
  Isomers %: 0.68%
[2]; 60° C. - one week
  Content %: 99.31%
  Isomers %: 0.70%
[2]; 60° C. - two weeks
  Content %: 99.33%
  Isomers %: 0.67%
[2]; different days under light and various temperature and humidity conditions
  increase in isomers of the compound of formula I versus initial (HPLC): none of them had a significant increase
[2]; initial
  Content %: 99.54%
  Isomers %: 0.67%
[2]; light, 0.5 ICH
  Content %: 99.44%
  Isomers %: 0.67%
[2]; light, 1 ICH
  Content %: 99.32%
  Isomers %: 0.67%
[2]; samples of the last day under light and various temperature and humidity conditions
  crystal form by XRPD after influence factor tests: had no change
